Assay results from patent US20080096967A1, “Formulations for Injection of Catecholic Butanes, Including Ndga Compounds, Into Animals” (priority 2005, published 2008).

Test system: HeLa, an HPV-18 positive human cervical cancer cell line
Test: Cell proliferation and cell death, trypan blue exclusion, HeLa cells
Type: cell-based
Description: M4N in 10% (w/v) HP-β-CD and 25% (v/v) PEG 300 (hereafter, the “CPE formulation”), M4N in 30% (w/v) HP-β-CD and 25% (v/v) PEG 300 (hereafter, the “CPE 25/30 formulation”) and M4N in 27% (w/v) HP-β-CD and 33% (v/v) PEG 300 (hereafter, the “CPE 33/27 formulation”) was tested for their effects on cell death and proliferation on two different tumor cell lines: HeLa, an HPV-18 positive human cervical cancer cell line, and C-33A, an HPV-negative human cervical cancer cell line M4N in DMSO was also tested in parallel. Both tumor cell lines were treated with increasing amounts of M4N: 0 μM, 20 μM, 40 μM, 60 μM and 80 μM, for 72 hr with the DMSO or the CPE formulation. Each formulation was added to total 1% of the growth media (Minimal Essential Medium with L-glutamine supplemented with 10% fetal bovine serum, 1 mM sodium pyruvate, 1× non-essential amino acid solution, and 1,000 IU/mL penicillin/1,000 μg/mL streptomycin solution). Control cells were grown under the same conditions and were left untreated. After 72 hr of treatment or no treatment, the total number of cells and the number of live cells in each sample were counted, using the trypan blue exclusion method. The cell proliferation rate and the percentage of dead cells in each sample were analyzed. Results of this experiment are shown in FIG. 1, FIG. 2, and Tables 6 through 12.
FIG. 1 is a graphical representation of the ratio of the number of treated cells/number of untreated cells plotted against increasing concentrations of M4N in either the DMSO formulation or the CPE formulation for treatment of the C-33A cells and HeLa cells. FIG. 2 is a graphical representation of the percentage of dead cells plotted against increasing concentrations of M4N and in either DMSO formulation or the CPE formulation for treatment of the two cancer cell lines, C-33A and HeLa cells in culture.
Various lots of M4N were tested to show the effectiveness of the drug of different lots. HeLa cells were treated with increasing amounts of M4N: 0 μM, 20 μM, 40 μM, 60 μM and 80 μM, for 72 hr with the CPE formulation. Each formulation was added to total 1% of the growth media (Minimal Essential Medium with L-glutamine supplemented with 10% fetal bovine serum, 1 mM sodium pyruvate, 1× non-essential amino acid solution, and 1,000 IU/mL penicillin/1,000 μg/mL streptomycin solution). Control cells were grown under the same conditions and were left untreated. After 72 hr of treatment or no treatment, the total number of cells and the number of live cells in each sample were counted, using the trypan blue exclusion method. The cell proliferation rate and the percentage of dead cells in each sample were analyzed.

[1] = M4N 20 μM in CPE 25/30 formulation, 72 hr
[2] = M4N 20 μM in CPE 25/30 formulation, 72 hr, at 3 months
[3] = M4N 20 μM in CPE 33/27 formulation, 72 hr, time zero
[4] = M4N 20 μM in CPE formulation, 72 hr, at 3 months
[5] = M4N 20 μM in CPE formulation, 72 hr, at 9 months
[6] = M4N 20 μM in CPE formulation, 72 hr, at 12 months
[7] = M4N 20 μM in CPE formulation, 72 hr, comparison with CPE 25/30
[8] = M4N 20 μM in CPE formulation, 72 hr, time 0
[9] = M4N 20 μM in CPE formulation, 72 hr, time zero, comparison with CPE 33/27
[10] = M4N 20 μM in DMSO, 72 hr, at 9 months
[11] = M4N 20 μM in DMSO, 72 hr, at 12 months
[12] = M4N 20 μM in DMSO, 72 hr, time 0
[13] = M4N 40 μM in CPE 25/30 formulation, 72 hr
[14] = M4N 40 μM in CPE 25/30 formulation, 72 hr, at 3 months
[15] = M4N 40 μM in CPE 33/27 formulation, 72 hr, time zero
[16] = M4N 40 μM in CPE formulation, 72 hr, at 3 months
[17] = M4N 40 μM in CPE formulation, 72 hr, at 9 months
[18] = M4N 40 μM in CPE formulation, 72 hr, at 12 months
[19] = M4N 40 μM in CPE formulation, 72 hr, comparison with CPE 25/30
[20] = M4N 40 μM in CPE formulation, 72 hr, time 0
[21] = M4N 40 μM in CPE formulation, 72 hr, time zero, comparison with CPE 33/27
[22] = M4N 40 μM in DMSO, 72 hr, at 9 months
[23] = M4N 40 μM in DMSO, 72 hr, at 12 months
[24] = M4N 40 μM in DMSO, 72 hr, time 0
[25] = M4N 60 μM in CPE 25/30 formulation, 72 hr
[26] = M4N 60 μM in CPE 25/30 formulation, 72 hr, at 3 months
[27] = M4N 60 μM in CPE 33/27 formulation, 72 hr, time zero
[28] = M4N 60 μM in CPE formulation, 72 hr, at 3 months
[29] = M4N 60 μM in CPE formulation, 72 hr, at 9 months
[30] = M4N 60 μM in CPE formulation, 72 hr, at 12 months
[31] = M4N 60 μM in CPE formulation, 72 hr, comparison with CPE 25/30
[32] = M4N 60 μM in CPE formulation, 72 hr, time 0
[33] = M4N 60 μM in CPE formulation, 72 hr, time zero, comparison with CPE 33/27
[34] = M4N 60 μM in DMSO, 72 hr, at 9 months
[35] = M4N 60 μM in DMSO, 72 hr, at 12 months
[36] = M4N 60 μM in DMSO, 72 hr, time 0
[37] = M4N 80 μM in CPE 25/30 formulation, 72 hr
[38] = M4N 80 μM in CPE 25/30 formulation, 72 hr, at 3 months
[39] = M4N 80 μM in CPE 33/27 formulation, 72 hr, time zero
[40] = M4N 80 μM in CPE formulation, 72 hr, at 3 months
[41] = M4N 80 μM in CPE formulation, 72 hr, at 9 months
[42] = M4N 80 μM in CPE formulation, 72 hr, at 12 months
[43] = M4N 80 μM in CPE formulation, 72 hr, comparison with CPE 25/30
[44] = M4N 80 μM in CPE formulation, 72 hr, time 0
[45] = M4N 80 μM in CPE formulation, 72 hr, time zero, comparison with CPE 33/27
[46] = M4N 80 μM in DMSO, 72 hr, at 9 months
[47] = M4N 80 μM in DMSO, 72 hr, at 12 months
[48] = M4N 80 μM in DMSO, 72 hr, time 0
[49] = M4N lot EM1001, 20 μM in CPE formulation, 72 hr
[50] = M4N lot EM1001, 40 μM in CPE formulation, 72 hr
[51] = M4N lot EM1001, 60 μM in CPE formulation, 72 hr
[52] = M4N lot EM1001, 80 μM in CPE formulation, 72 hr
[53] = M4N lot EM1002, 20 μM in CPE formulation, 72 hr
[54] = M4N lot EM1002, 40 μM in CPE formulation, 72 hr
[55] = M4N lot EM1002, 60 μM in CPE formulation, 72 hr
[56] = M4N lot EM1002, 80 μM in CPE formulation, 72 hr

## COc1ccc(C[C@@H](C)[C@@H](C)Cc2ccc(OC)c(OC)c2)cc1OC [Formulation M4N, meso-1,4-bis(3,4-dimethoxyphenyl)-2,3-dimethylbutane]
80 μM or […] M4N in CPE formulation
  cell death, share of the cell population: about 20%
80 μM or […] M4N in DMSO formulation
  cell death, share of the cell population: about 40%
CPE formulation, 72 hr
  M4N sufficient to cause about a 50% inhibition in cell proliferation: ~7.2 µg/mL
CPE formulation, lots EM1001 and EM1002
  effectiveness of the drug of different lots: remains the same
[1]
  % Dead Cells: 9.4%
  % Viability: 90.7%
  Proliferation Rate: 0.34
[2]
  % Dead Cells: 11.9%
  % Viability: 88.1%
  Proliferation Rate: 0.39
[3]
  % Dead Cells: 10.9%
  % Viability: 89.2%
  Proliferation Rate: 0.43
[4]
  % Dead Cells: 9.0%
  % Viability: 91.0%
  Proliferation Rate: 0.39
[5]
  % Dead Cells: 31.3%
  % Viability: 68.7%
  Proliferation Rate: 0.24
[6]
  % Dead Cells: 3.3%
  % Viability: 96.8%
  Proliferation Rate: 0.74
[7]
  % Dead Cells: 6.6%
  % Viability: 93.5%
  Proliferation Rate: 0.33
[8]
  % Dead Cells: 4.4%
  % Viability: 95.6%
  Proliferation Rate: 0.52
[9]
  % Dead Cells: 11.9%
  % Viability: 88.1%
  Proliferation Rate: 0.35
[10]
  % Dead Cells: 10.7%
  % Viability: 89.3%
  Proliferation Rate: 0.19
[11]
  % Dead Cells: 12.6%
  % Viability: 87.4%
  Proliferation Rate: 0.23
[12]
  % Dead Cells: 9.9%
  % Viability: 90.1%
  Proliferation Rate: 0.25
[13]
  % Dead Cells: 11.0%
  % Viability: 89.1%
  Proliferation Rate: 0.31
[14]
  % Dead Cells: 13.4%
  % Viability: 86.6%
  Proliferation Rate: 0.32
[15]
  % Dead Cells: 13.6%
  % Viability: 86.4%
  Proliferation Rate: 0.19
[16]
  % Dead Cells: 16.5%
  % Viability: 83.5%
  Proliferation Rate: 0.09
[17]
  % Dead Cells: 27.2%
  % Viability: 72.8%
  Proliferation Rate: 0.10
[18]
  % Dead Cells: 5.0%
  % Viability: 95.0%
  Proliferation Rate: 0.21
[19]
  % Dead Cells: 23.4%
  % Viability: 76.7%
  Proliferation Rate: 0.08
[20]
  % Dead Cells: 9.4%
  % Viability: 90.6%
  Proliferation Rate: 0.28
[21]
  % Dead Cells: 25.9%
  % Viability: 74.2%
  Proliferation Rate: 0.14
[22]
  % Dead Cells: 8.8%
  % Viability: 91.2%
  Proliferation Rate: 0.14
[23]
  % Dead Cells: 13.7%
  % Viability: 86.4%
  Proliferation Rate: 0.04
[24]
  % Dead Cells: 13.2%
  % Viability: 86.8%
  Proliferation Rate: 0.25
[25]
  % Dead Cells: 22.8%
  % Viability: 77.3%
  Proliferation Rate: 0.12
[26]
  % Dead Cells: 23.1%
  % Viability: 76.9%
  Proliferation Rate: 0.11
[27]
  % Dead Cells: 29.3%
  % Viability: 70.7%
  Proliferation Rate: 0.10
[28]
  % Dead Cells: 43.1%
  % Viability: 56.9%
  Proliferation Rate: 0.03
[29]
  % Dead Cells: 13.6%
  % Viability: 86.4%
  Proliferation Rate: 0.09
[30]
  % Dead Cells: 25.0%
  % Viability: 75.0%
  Proliferation Rate: 0.05
[31]
  % Dead Cells: 55.6%
  % Viability: 44.5%
  Proliferation Rate: 0.03
[32]
  % Dead Cells: 19.6%
  % Viability: 80.4%
  Proliferation Rate: 0.13
[33]
  % Dead Cells: 26.2%
  % Viability: 73.9%
  Proliferation Rate: 0.10
[34]
  % Dead Cells: 32.5%
  % Viability: 67.5%
  Proliferation Rate: 0.03
[35]
  % Dead Cells: 35.4%
  % Viability: 64.6%
  Proliferation Rate: 0.04
[36]
  % Dead Cells: 36.1%
  % Viability: 63.9%
  Proliferation Rate: 0.13
[37]
  % Dead Cells: 45.2%
  % Viability: 54.8%
  Proliferation Rate: 0.07
[38]
  % Dead Cells: 35.6%
  % Viability: 64.4%
  Proliferation Rate: 0.04
[39]
  % Dead Cells: 25.0%
  % Viability: 75.0%
  Proliferation Rate: 0.09
[40]
  % Dead Cells: 29.0%
  % Viability: 71.0%
  Proliferation Rate: 0.03
[41]
  % Dead Cells: 11.9%
  % Viability: 88.1%
  Proliferation Rate: 0.08
[42]
  % Dead Cells: 47.2%
  % Viability: 52.8%
  Proliferation Rate: 0.03
[43]
  % Dead Cells: 56.7%
  % Viability: 43.4%
  Proliferation Rate: 0.04
[44]
  % Dead Cells: 21.5%
  % Viability: 78.5%
  Proliferation Rate: 0.13
[45]
  % Dead Cells: 21.6%
  % Viability: 78.4%
  Proliferation Rate: 0.11
[46]
  % Dead Cells: 50.0%
  % Viability: 50.0%
  Proliferation Rate: 0.02
[47]
  % Dead Cells: 23.6%
  % Viability: 76.5%
  Proliferation Rate: 0.15
[48]
  % Dead Cells: 38.6%
  % Viability: 61.4%
  Proliferation Rate: 0.02
M4N in DMSO or CPE formulation vs non-M4N-treated controls in the same formulation
  Cell proliferation rate: reduced
[49]
  % Dead Cells: 5.1%
  % Viability: 94.9%
  Proliferation Rate: 0.25
[50]
  % Dead Cells: 26.3%
  % Viability: 73.7%
  Proliferation Rate: 0.10
[51]
  % Dead Cells: 55.6%
  % Viability: 44.4%
  Proliferation Rate: 0.01
[52]
  % Dead Cells: 40.2%
  % Viability: 59.8%
  Proliferation Rate: 0.01
[53]
  % Dead Cells: 12.0%
  % Viability: 88.0%
  Proliferation Rate: 0.32
[54]
  % Dead Cells: 25.8%
  % Viability: 74.2%
  Proliferation Rate: 0.11
[55]
  % Dead Cells: 58.1%
  % Viability: 41.9%
  Proliferation Rate: 0.05
[56]
  % Dead Cells: 59.7%
  % Viability: 40.3%
  Proliferation Rate: 0.03
read-out: M4N sufficient to cause about a 50% inhibition in cell proliferation, CPE formulation, 72 hr
  IC50: ~20 µM
